Test results reported in patent EP0509845A1, “(+) and (-) enantiomers of 5-aliphatic-6-(benzoxazinyl- or benzothiazinyl)-2,3,4,5-tetrahydropyridazin-3-ones” (ORTHO PHARMACEUTICAL CORPORATION, priority 1991, dated 1992).
Like-named read-outs stand apart in the source and are kept apart here.

Assays:
[1] = biological target: T1, canine cardiac cyclic nucleotide phosphodiesterase (PDE) fraction III (Canis lupus familiaris, UniProt A0A8I3NYE0); experiment: Cyclic AMP phosphodiesterase assay with fraction III isoenzyme, comparative testing; type: biochemical
T1 construct: The fraction III isoenzyme was pooled and dialyzed; from tissue; host or cells: canine heart, soluble supernatant, DEAE cellulose fraction III (800 mM sodium acetate eluate)
T1 sequence (A0A8I3NYE0 1-1135): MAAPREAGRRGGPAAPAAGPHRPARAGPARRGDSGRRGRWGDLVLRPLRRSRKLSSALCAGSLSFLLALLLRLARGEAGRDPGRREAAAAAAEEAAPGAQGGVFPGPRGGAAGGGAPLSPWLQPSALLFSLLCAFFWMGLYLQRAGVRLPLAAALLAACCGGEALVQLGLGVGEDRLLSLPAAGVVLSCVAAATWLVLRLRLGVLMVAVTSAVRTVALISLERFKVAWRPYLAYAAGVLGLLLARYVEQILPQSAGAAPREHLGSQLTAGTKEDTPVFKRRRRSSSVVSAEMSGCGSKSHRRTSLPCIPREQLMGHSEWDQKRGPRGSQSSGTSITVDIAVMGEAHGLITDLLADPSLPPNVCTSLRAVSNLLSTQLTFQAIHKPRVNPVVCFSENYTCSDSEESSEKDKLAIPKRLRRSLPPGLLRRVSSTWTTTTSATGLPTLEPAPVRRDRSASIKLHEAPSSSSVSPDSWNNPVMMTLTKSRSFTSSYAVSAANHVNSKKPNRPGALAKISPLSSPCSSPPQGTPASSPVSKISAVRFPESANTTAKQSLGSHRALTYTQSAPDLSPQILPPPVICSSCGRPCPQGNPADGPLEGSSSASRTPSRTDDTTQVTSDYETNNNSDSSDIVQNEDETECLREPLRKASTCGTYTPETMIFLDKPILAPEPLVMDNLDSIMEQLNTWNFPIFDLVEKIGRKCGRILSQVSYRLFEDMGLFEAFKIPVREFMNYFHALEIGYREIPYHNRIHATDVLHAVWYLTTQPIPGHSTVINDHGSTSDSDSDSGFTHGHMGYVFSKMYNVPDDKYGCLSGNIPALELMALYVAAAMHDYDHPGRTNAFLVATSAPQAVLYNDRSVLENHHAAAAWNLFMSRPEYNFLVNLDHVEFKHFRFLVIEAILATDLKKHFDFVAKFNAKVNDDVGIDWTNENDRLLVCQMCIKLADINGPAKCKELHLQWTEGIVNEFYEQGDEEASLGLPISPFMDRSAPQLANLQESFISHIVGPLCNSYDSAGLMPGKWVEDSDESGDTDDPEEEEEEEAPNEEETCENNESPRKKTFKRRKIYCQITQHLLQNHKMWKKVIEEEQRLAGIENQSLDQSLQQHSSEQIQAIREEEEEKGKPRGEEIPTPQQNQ

adult mongrel dogs = experiment: Comparative racemate and enantiomer hemodynamic testing in pentobarbital anesthetized open-chest dogs; type: in vivo; conditions: for CO Percent Change from Control: cardiac output; for CO Percent Change from Control / CF Percent Change from Control / HR Percent Change from Control / LVEDP Percent Change from Control / MAP Percent Change from Control / dP/dtmax Percent Change from Control / RAP Percent Change from Control / SV Percent Change from Control / SW Percent Change from Control / TPR Percent Change from Control: anesthetized open-chest dogs; for CF Percent Change from Control: contractile force; for HR Percent Change from Control: heart rate; for LVEDP Percent Change from Control: left ventricular end diastolic pressure; for MAP Percent Change from Control: mean blood pressure; for dP/dtmax Percent Change from Control: peak rate of rise in left ventricular pressure; for RAP Percent Change from Control: right atrial pressure; for SV Percent Change from Control: stroke volume (CO/HR x 1000); for SW Percent Change from Control: stroke work; for TPR Percent Change from Control: total peripheral resistance
Experimental: Adult mongrel dogs weighing approximately l0-l4 kg were anesthetized with sodium pentobarbital (35 mg/kg, i.p.) and artificially respired. A femoral artery was cannulated to measure mean arterial pressure (MAP) and a femoral vein was cannulated for administering compounds. A Millar microtip pressure transducer was placed in the left ventricle via the left carotid artery to measure left ventricular end diastolic pressure (EDP). pressure pulses triggered a cardiotachometer for determination of heart rate (HR) while the left ventricular pressure waveform was differentiated using a Gould differentiating amplifier to yield dP/dtmax, an index of contractility. A right thoractomy was performed at the fourth intercostal space and the pericardial sac was opened. An externally calibrated Walton-Brodie strain gauge arch was sutured to the right ventricular free wall and stretched to produce a baseline force of approximately l00g. Subsequent changes in right ventricular contractile force (CF) were measured from this baseline. A Carolina electromagnetic flow probe was placed on the ascending aorta to estimate cardiac output (CO). A flexible fluid-filled catheter was inserted into the tip of the right atrium to measure right atrial pressure (RAP). Needle electrodes were placed in the appropriate limbs to record a lead II electrocardiogram (ECG). The following formulas were used to calculate derived parameters: Stroke volume (SV) = CO/HR x l000 Stroke work (SW) = ([…]) x SV Total peripheral resistance (TPR) = (MAP-EDP)/CO
Following surgery and stabilization of hemodynamic parameters, an i.v. infusion of dopamine (l0-l5 µg/kg/min for 3 min) was administered with a Harvard infusion pump to assess responsiveness to positive inotropic stimulation. Baseline hemodynamic values were obtained immediately prior to drug infusion. Responses were continuously monitored on a recorder (Gould 2800) and data collection was facilitated by the use of a Buxco cardiovascular analyzer and data logger.
In the comparative testing a stock solution of each enantiomer (l mg/ml) was prepared fresh daily and diluted before use. Compounds were dissolved in a small volume of dimethylformamide (DMF) and diluted with saline for a final concentration of l5% DMF. Further dilutions were made with a l5% DMF solution.
In the comparative testing each compound was administered in cumulative doses to separate dogs. Data were obtained at the end of each dose. (±) Bemoradan and (+) Bemordan were infused at cumulative doses of 5, l5, 35 and 75 µg/kg, administered with a Harvard infusion pump for 5 minutes each at rates of 0.56, l.l, 2.2, and […], respectively. (-) Bemoradan was given at doses of 5, l5 and 35 µg/kg following the same protocol. The high dose of the (-) isomer was not administered as a means of conserving compound.
Hemodynamic results were expressed as the percent change from pre-drug baseline values and compared using a Dunnett's test with a criterion for significance of p < 0.05. Contractile force ED₄₀ values (i.e., the dose which increased contractile force by 40%) were calculated from dose-response regression lines.

CC1CC(=O)NN=C1c1ccc2c(c1)OCC(=O)N2 (single isomer, unassigned; isomer 6) [(+) isomer, 6-(3,4-dihydro-3-oxo-l,4(2H)-benzoxazin-7-yl)-2,3,4,5-tetrahydro-5-methyl-pyridazin-3-one]
IC50 ([1]; Table I summary, canine cardiac PDE fraction III, read-out: PDE III inhibition (IC50)): 8 µM | IC50 ([1]; canine heart fraction III, 0.1 µM cyclic AMP, read-out: PDE III IC50): 8 µM | In vivo inotropic ED40, i.v. (adult mongrel dogs; Table I summary, dose increasing contractile force by 40%, dogs, i.v.): 0.0423 mg/kg | CO Percent Change from Control (adult mongrel dogs; cumulative i.v. dose 5 µg/kg): 2.0±1.4% | CO Percent Change from Control (adult mongrel dogs; cumulative i.v. dose 15 µg/kg): 4.8±2.8% | CO Percent Change from Control (adult mongrel dogs; cumulative i.v. dose 35 µg/kg): 10.6±5.9% | CO Percent Change from Control (adult mongrel dogs; cumulative i.v. dose 75 µg/kg): 13.4±8.5% | CF Percent Change from Control (adult mongrel dogs; cumulative i.v. dose 5 µg/kg): 4.3±2.7% | CF Percent Change from Control (adult mongrel dogs; cumulative i.v. dose 15 µg/kg): 11.8±3.3% | CF Percent Change from Control (adult mongrel dogs; cumulative i.v. dose 35 µg/kg): 29.5±5.2% | CF Percent Change from Control (adult mongrel dogs; cumulative i.v. dose 75 µg/kg): 59.5±7.2% | CF ED40 (µg/kg) with 95% F.L. (adult mongrel dogs; dose causing a 40% increase in contractility above baseline, from dose-response regression lines, i.v. infusion, dogs): 42.3 (33.5 - 56.7) µg/kg | HR Percent Change from Control (adult mongrel dogs; cumulative i.v. dose 5 µg/kg): -0.7±0.8% | HR Percent Change from Control (adult mongrel dogs; cumulative i.v. dose 15 µg/kg): 1.2±0.8% | HR Percent Change from Control (adult mongrel dogs; cumulative i.v. dose 35 µg/kg): 4.5±1.0% | HR Percent Change from Control (adult mongrel dogs; cumulative i.v. dose 75 µg/kg): 10.6±3.7% | LVEDP Percent Change from Control (adult mongrel dogs; cumulative i.v. dose 5 µg/kg): -3.4±3.6% | LVEDP Percent Change from Control (adult mongrel dogs; cumulative i.v. dose 15 µg/kg): -4.9±4.8% | LVEDP Percent Change from Control (adult mongrel dogs; cumulative i.v. dose 35 µg/kg): -7.4±5.7% | LVEDP Percent Change from Control (adult mongrel dogs; cumulative i.v. dose 75 µg/kg): -11.2±7.1% | MAP Percent Change from Control (adult mongrel dogs; cumulative i.v. dose 5 µg/kg): -1.4±1.1% | MAP Percent Change from Control (adult mongrel dogs; cumulative i.v. dose 15 µg/kg): -1.8±1.7% | MAP Percent Change from Control (adult mongrel dogs; cumulative i.v. dose 35 µg/kg): -2.2±2.2% | MAP Percent Change from Control (adult mongrel dogs; cumulative i.v. dose 75 µg/kg): -3.8±2.8% | dP/dtmax Percent Change from Control (adult mongrel dogs; cumulative i.v. dose 5 µg/kg): 2.8±1.0% | dP/dtmax Percent Change from Control (adult mongrel dogs; cumulative i.v. dose 15 µg/kg): 7.3±1.8% | dP/dtmax Percent Change from Control (adult mongrel dogs; cumulative i.v. dose 35 µg/kg): 18.9±3.6% | dP/dtmax Percent Change from Control (adult mongrel dogs; cumulative i.v. dose 75 µg/kg): 37.0±6.4% | RAP Percent Change from Control (adult mongrel dogs; cumulative i.v. dose 5 µg/kg): -10.6±8.5% | RAP Percent Change from Control (adult mongrel dogs; cumulative i.v. dose 15 µg/kg): -5.8±9.7% | RAP Percent Change from Control (adult mongrel dogs; cumulative i.v. dose 35 µg/kg): -4.2±8.4% | RAP Percent Change from Control (adult mongrel dogs; cumulative i.v. dose 75 µg/kg): -21.7±13.3% | SV Percent Change from Control (adult mongrel dogs; cumulative i.v. dose 5 µg/kg): 2.5±0.7% | SV Percent Change from Control (adult mongrel dogs; cumulative i.v. dose 15 µg/kg): 4.0±2.4% | SV Percent Change from Control (adult mongrel dogs; cumulative i.v. dose 35 µg/kg): 6.8±6.1% | SV Percent Change from Control (adult mongrel dogs; cumulative i.v. dose 75 µg/kg): 6.1±9.1% | SW Percent Change from Control (adult mongrel dogs; cumulative i.v. dose 5 µg/kg): 0.7±1.3% | SW Percent Change from Control (adult mongrel dogs; cumulative i.v. dose 15 µg/kg): 1.7±3.5% | SW Percent Change from Control (adult mongrel dogs; cumulative i.v. dose 35 µg/kg): 4.4±7.3% | SW Percent Change from Control (adult mongrel dogs; cumulative i.v. dose 75 µg/kg): 1.9±9.9% | TPR Percent Change from Control (adult mongrel dogs; cumulative i.v. dose 5 µg/kg): -3.6±0.7% | TPR Percent Change from Control (adult mongrel dogs; cumulative i.v. dose 15 µg/kg): -6.6±1.7% | TPR Percent Change from Control (adult mongrel dogs; cumulative i.v. dose 35 µg/kg): -11.3±3.7% | TPR Percent Change from Control (adult mongrel dogs; cumulative i.v. dose 75 µg/kg): -14.4±5.3%
